Test results as given in US8569264B2, “Antibacterial 4,5-substituted aminoglycoside analogs having multiple substituents” (ISIS Pharmaceuticals, Inc., priority 2005, dated 2013).

What was measured:
Assay type in all cases: cell-based
[1] = tested on: P. aurginosa ATCC 27853; test: MIC, P. aurginosa ATCC 27853; settings: Example 112
Experimental: (§1) The MIC assays are carried out in 150 μL volume in duplicate in 96-well clear flat-bottom plates. The bacterial suspension from an overnight culture growth in appropriate medium is added to a solution of test compound in 4% DMSO in water. Final bacterial inoculum is approximately 10^5-10^6 CFU/well. The percent growth of the bacteria in test wells relative to that observed for a well containing no compound is determined by measuring absorbance at 595 nm (A595) after 24 h. The MIC is determined as a range of single compound where the complete inhibition of growth is observed at the higher concentration and cells are viable at the lower concentrations. Both ampicillin and tetracycline are used as antibiotic-positive controls in each screening assay for S. pyogenes, E. coli imp-, E. coli, S. aureus, E. faecalis, K. pneumoniae and P. vulgaris. Ciprofloxacin is used as an antibiotic positive control in each screening assay for P. aeruginosa.
(§2) The following compound was prepared using methods illustrated in the previous examples. The compound was also examined in standard bacterial assays against E. Coli, S. Aureus, P. aurginosa, K. pneumoniae and A. baumannii to determine activities. Each of the bacterial cultures that are available from ATCC (www.atcc.org) is identified by its ATCC number.

[2] = tested on: E. coli ATCC 25922; test: MIC, E. coli ATCC 25922; settings: Escherichia coli, ATCC25922, Example 112
Experimental: (§3) The MIC assays are carried out in 150 μL volume in duplicate in 96-well clear flat-bottom plates. The bacterial suspension from an overnight culture growth in appropriate medium is added to a solution of test compound in 4% DMSO in water. Final bacterial inoculum is approximately 10^5-10^6 CFU/well. […] Both ampicillin and tetracycline are used as antibiotic-positive controls in each screening assay for S. pyogenes, E. coli imp-, E. coli, S. aureus, E. faecalis, K. pneumoniae and P. vulgaris. Ciprofloxacin is used as an antibiotic positive control in each screening assay for P. aeruginosa.
(§4) The following compounds were prepared using methods illustrated in the previous examples. The compounds were also examined in standard bacterial assays against E. Coli, S. Aureus, P. aurginosa, K. pneumoniae, P. vulgaris, and A. baumannii to determine activities. Each of the bacterial cultures that are available from ATCC (www.atcc.org) is identified by its ATCC number. A. baumannii is gentamicin sensitive Acinetobacter baumannii #2 from Walter Reed.

[3] = tested on: K. pneumoniae ATCC 10031; test: MIC, K. pneumoniae ATCC 10031; settings: Klebsiella pneumoniae, ATCC10031, Example 112
Experimental: as §3, §4

[4] = tested on: A. baumannii ATCC 19606; test: MIC, A. baumannii ATCC 19606; settings: Acinetobacter baumannii, ATCC19606; Example 112
Experimental: as §1, §2

[5] = tested on: S. aureus ATCC 29213; test: MIC, S. aureus ATCC 29213; settings: Staphylococcus aureus, ATCC29213; Example 112
Experimental: as §1, §2

Measured: MIC

NCC[C@H](O)C(=O)N[C@@H]1C[C@H](N)[C@@H](O[C@H]2O[C@H](CN)CC[C@H]2N)[C@H](O[C@@H]2O[C@H](CO)[C@@H](O[C@H]3O[C@@H](CN)[C@@H](O)[C@H](O)[C@H]3N)[C@H]2OCCNCCc2ccccc2)[C@H]1O [Compound 87, N-1-haba-2″-O-phenylethylaminoethyl-3′,4′-dideoxy neomycin]
< 16 µM: all assays above
